ChEMBL document CHEMBL1201862, “PubChem BioAssay data set” (2004)
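Assay format: 96-well plates, 48-hour exposure. Abbreviation: GI50, concentration required for 50% inhibition of growth.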 The source made the active and inactive calls. Rule as the data show it: active = GI50 up to about 1.1 µM and inactive = higher.

Key:
Assay in all cases: NCI tumour cell line growth inhibition, 48 h
UO-31 = test system: UO-31
NCI-H226 = test system: NCI-H226
A549 = test system: A549
SF-539 = test system: SF-539
KM12 = test system: KM12
SNB-19 = test system: SNB-19
SK-MEL-28 = test system: SK-MEL-28
MDA-MB-231 = test system: MDA-MB-231
T47D = test system: T47D
Hs-578T = test system: Hs-578T
SK-OV-3 = test system: SK-OV-3
ACHN = test system: ACHN
RPMI-8226 = test system: RPMI-8226
HCC 2998 = test system: HCC 2998
M14 = test system: M14
CAKI-1 = test system: CAKI-1
EKVX = test system: EKVX
MOLT-4 = test system: MOLT-4
OVCAR-5 = test system: OVCAR-5
BT-549 = test system: BT-549

Measured: GI50

COCOC1/C=C/CCCCC2=C(C)C=C(C1)O2 (stereo not given)
inactive: UO-31 > 100 µM | NCI-H226 > 100 µM | A549 > 100 µM | SF-539 > 100 µM | KM12 > 100 µM | SNB-19 > 100 µM | SK-MEL-28 > 100 µM | MDA-MB-231 > 100 µM | T47D > 100 µM | Hs-578T > 100 µM | SK-OV-3 > 100 µM | ACHN > 100 µM | RPMI-8226 > 100 µM | HCC 2998 > 100 µM | M14 > 100 µM | CAKI-1 > 100 µM | EKVX > 100 µM | MOLT-4 > 100 µM | OVCAR-5 > 100 µM | BT-549 > 100 µM

Cc1ccc(S(=O)(=O)N2CCNCCN(S(=O)(=O)c3ccc(C)cc3)CCN(S(=O)(=O)c3ccc(C)cc3)CC2)cc1
inactive: UO-31 > 100 µM | NCI-H226 > 100 µM | A549 > 100 µM | SF-539 > 100 µM | KM12 > 100 µM | SNB-19 > 100 µM | SK-MEL-28 > 100 µM | MDA-MB-231 > 100 µM | T47D > 100 µM | Hs-578T > 100 µM | SK-OV-3 > 100 µM | ACHN > 100 µM | RPMI-8226 > 100 µM | HCC 2998 > 100 µM | M14 > 100 µM | CAKI-1 > 100 µM | EKVX > 100 µM | MOLT-4 > 100 µM | OVCAR-5 > 100 µM | BT-549 > 100 µM

O=P1(C(O)/C=C/c2ccccc2)N(Cc2ccccc2)[C@H](c2ccccc2)[C@@H](c2ccccc2)N1Cc1ccccc1 (stereo not given in full)
inactive: UO-31 12.5 µM | NCI-H226 36.6 µM | A549 6.92 µM | SF-539 > 51.3 µM | KM12 17 µM | SNB-19 24.3 µM | SK-MEL-28 35.2 µM | MDA-MB-231 17.3 µM | T47D 7.13 µM | Hs-578T 26.2 µM | SK-OV-3 22.5 µM | ACHN 27.4 µM | RPMI-8226 3.63 µM | HCC 2998 19.6 µM | M14 14.4 µM | CAKI-1 17.1 µM | EKVX 11.7 µM | MOLT-4 2.61 µM | OVCAR-5 21.8 µM | BT-549 28.6 µM

Fc1cccc(C2SCc3nc4cc5ccccc5cc4n32)c1 (stereo not given)
inactive: UO-31 > 100 µM | NCI-H226 > 100 µM | A549 > 100 µM | SF-539 > 100 µM | KM12 > 100 µM | SNB-19 > 100 µM | SK-MEL-28 > 100 µM | MDA-MB-231 > 100 µM | T47D > 100 µM | Hs-578T > 100 µM | SK-OV-3 > 100 µM | ACHN > 100 µM | RPMI-8226 > 100 µM | HCC 2998 > 100 µM | M14 > 100 µM | CAKI-1 68.9 µM | EKVX > 100 µM | MOLT-4 > 100 µM | OVCAR-5 > 100 µM | BT-549 > 100 µM

COc1cc(N(CCC#N)CCC#N)ccc1C(=N/NC(=O)c1cc(Br)ccc1O)/N=N/c1ccccc1
inactive: UO-31 21.6 µM | NCI-H226 33.2 µM | A549 25.4 µM | SF-539 34.2 µM | KM12 28.2 µM | SNB-19 32.1 µM | SK-MEL-28 27.9 µM | MDA-MB-231 21.2 µM | T47D 24 µM | Hs-578T 61.2 µM | SK-OV-3 31.1 µM | ACHN 28.2 µM | RPMI-8226 17.1 µM | HCC 2998 23.3 µM | M14 29 µM | CAKI-1 27 µM | EKVX 21.1 µM | MOLT-4 15.9 µM | OVCAR-5 38.1 µM | BT-549 20.8 µM

CCSc1nc(COC(=O)NC)c(COC(=O)NC)n1C
inactive: UO-31 > 95.9 µM | NCI-H226 > 100 µM | A549 > 97.5 µM | SF-539 98.9 µM | KM12 > 100 µM | SNB-19 > 100 µM | SK-MEL-28 > 100 µM | MDA-MB-231 > 100 µM | T47D > 100 µM | Hs-578T > 100 µM | SK-OV-3 50.7 µM | ACHN 16.6 µM | RPMI-8226 > 97.9 µM | HCC 2998 > 85.7 µM | M14 > 64.1 µM | CAKI-1 49.5 µM | EKVX > 100 µM | MOLT-4 43.4 µM | OVCAR-5 > 100 µM | BT-549 > 100 µM
